Data as given in patent US20230190852A1, “COMPOSITIONS AND METHODS FOR JOINT HEALTH” (Unigen, Inc., priority 2013, published 2023).
“And” between values parts separate entries of the source, which are not always exact repeats. Equal entries are not always repeated. Marks after values point to notes of the source that are not given here.

Columns and labels:
Format in all cases: in vivo
[1] = test system: CD-1 mice; test: Visceral pain perception model (Writhing's test, acetic acid)
Protocol: Mice (n=6 per group) were habituated under an inverted Plexiglas observation chamber for 30 minutes to allow them to acclimatize to their surroundings. Animals were orally administered treatment articles at different doses, […], or vehicle control (propylene glycol) 30 minutes before intraperitoneal administration of freshly made acetic acid solution (0.7% in 0.9% NaCl) at 10 ml/kg using a 26 gauge needle. The experiment was carried out at room temperature. After the challenge, each animal was placed back into its own individual section of the observation chamber and the number of constrictions of the abdominal muscle together with stretching was counted cumulatively over a period of 30 minutes (Collier et al., Br. J. Pharmacol. Chemother. 32:295, 1968).

[2] = test system: Lewis rats; test: Carrageenan-induced rat paw edema model (paw edema and pain sensitivity); details: for Pain sensitivity (Analgesia), percent change vs. vehicle, 1 hr / Paw Edema (Inflammation), percent change vs. vehicle, 1 hr: 1 hr after treatment; for Pain sensitivity (Analgesia), percent change vs. vehicle, 5 hr / Paw Edema (Inflammation), percent change vs. vehicle, 5 hr: 5 hr after treatment; for Pain sensitivity, percent change of vehicle / Paw edema, percent change of vehicle: 200 mg/kg oral 1 hr after carrageenan, female Lewis rats, 200 mg/kg
Protocol: Local inflammation was induced by intraplantar injection of carrageenan λ (Sigma, St. Louis, Mo.; 100 μl of 1% [w/v] in saline) into the plantar surface of right hind paw of sedated rat (with 2.5% isoflurane) at time 0 (T=0) (Gamache et al., J Neurosurg. 65:679, 1986; Guay et al., J. Biol. Chem. 279:24866, 2004; Chou et al., Anesth. Analg. 97:1724, 2003). Rats were acclimated in a procedure room for 20-30 minutes before each measurement was taken. Allodynia was evaluated by measuring responsiveness to the tip of a Randell-Selitto paw pressure test applied perpendicular to the central plantar surface of the right hind paw. A positive response to the applied pressure, noted by sharp withdrawal of the paw, was recorded automatically by an electronic Von Frey Anesthesiometer (2390 series Electrovonfrey, IITC, Woodland Hills, Calif.) (Vivancos et al., Braz. J. Med. Biol. Res. 37:391, 2004). Mechanical allodynia was evaluated before carrageenan inoculation, and thereafter at 1 hr, 2 hr, 4 hr and 6 hr. Paw edema volume was measured with the use of Plethysmometer (IITC, Woodland Hills, Calif.; Model 520) at time 0 (before carrageenan), and then 1 hr, 2 hr, 4 hr, and 6 hr after carrageenan injection. Animals (N=5 per group) were orally gavaged with a positive control ibuprofen (Spectrum Chemical MFG, Gardena, Calif.) (100 or 200 mg/kg); test articles such as: extracts, and combinations of extracts at various doses from 100, 200, 300 to 400 mg/kg and vehicle control (propylene glycol) were given 1 hour after carrageenan inoculation unless specified otherwise.

[3] = test system: CD-1 mice; test: Nociceptive behavior model elicited by intraplantar injection of formalin; details: 200 mg/kg oral
Protocol: Mice (n=6 per group) were habituated under inverted Plexiglas observation chamber for 30 minutes to allow them to acclimatize to their surroundings. […] Mice were immediately transferred to their individual observational chamber. […] Mirrors positioned behind the chambers enabled observation of the right hind paw when it was obscured from direct view. […] These behavioral reactions observed for the first five minutes are due to direct action of the irritant on sensory nerve endings where is believed to be as a result of inflammation in the later phase. […] Mice were treated with curcumin (50, 100, 150 or 200 mg/kg) or ibuprofen (200 mg/kg) orally half an hour before intraplantar formalin injection.

[4] = 200 mg/kg oral, vs vehicle, CD-1 mice
[5] = 200 mg/kg oral, listed as ibuprofen
[6] = 200 mg/kg oral, 3 hr after treatment

CC(C)Cc1ccc(C(C)C(=O)O)cc1 (stereo not shown) [Ibuprofen]
Max % inhibition of visceral pain sensitivity ([1]; 100 mg/kg oral): 67.6% | Visceral Pain Sensitivity % ↓ vs. Vehicle ([1]; 100 mg/kg oral): 56.1% | % reduction of pain behavior ([1]; 200 mg/kg oral): 67.4% and 46.0% | number of abdominal constrictions / behavioral responses in 30 minutes, Mean ± SD ([1]; 200 mg/kg oral): 25.3±14.3 and 41.8±12.6 | Visceral pain sensitivity, behavioral responses, Mean ± SD ([1]; 200 mg/kg oral 30 min before acetic acid i.p., observed 30 minutes, CD-1 mice): 34.5 ± 12.7 and 25.3 ± 14.3 and 41.8 ± 12.6 | Visceral pain sensitivity, % Inhibition [1, 4]: 67.4% and 46.0% | Visceral pain sensitivity, % inhibition vs vehicle [1, 4]: 64.1% | Pain sensitivity (Analgesia), percent change vs. vehicle, 1 hr ([2]; 200 mg/kg oral): 55.6* % and 55.1* % and 52.9* % | Paw Edema (Inflammation), percent change vs. vehicle, 1 hr ([2]; 200 mg/kg oral): 43.5* % and 39.5* % and 44.6* % | Pain sensitivity (Analgesia), percent change vs. vehicle, 1 hr [2, 5]: 55.1% | Paw Edema (Inflammation), percent change vs. vehicle, 1 hr [2, 5]: 39.5% | Pain sensitivity (Analgesia), percent change vs. vehicle, 3 hr [2, 6]: 62.7* % and 70.3* % and 62.5* % | Paw Edema (Inflammation), percent change vs. vehicle, 3 hr [2, 6]: 58.0* % and 50.4* % and 54.9* % | Paw Edema (Inflammation), percent change vs. vehicle, 3 hr ([2]; 200 mg/kg oral, 3 hr after treatment, listed as ibuprofen): 50.4% | Pain sensitivity (Analgesia), percent change vs. vehicle, 5 hr ([2]; 200 mg/kg oral): 44.6* % and 50.8* % and 48.8* % | Paw Edema (Inflammation), percent change vs. vehicle, 5 hr ([2]; 200 mg/kg oral): 50.3* % and 46.6* % and 50.0* % | Pain sensitivity (Analgesia), percent change vs. vehicle, 5 hr [2, 5]: 50.8% | Paw Edema (Inflammation), percent change vs. vehicle, 5 hr [2, 5]: 46.6% | Pain sensitivity, percent change of vehicle ([2]; 1 hr): 57.1* % and 55.4* % and 56.4* % and 56.1* % and 53.7* % and 52.4* % and 58.6* % | Paw edema, percent change of vehicle ([2]; 1 hr): 53.2* % and 51.6* % and 53.9* % and 57.2* % and 54.2* % and 53.0* % and 52.5* % | Pain sensitivity, percent change of vehicle ([2]; 3 hr): 61.5* % and 65.9* % and 62.2* % and 59.7* % and 64.0* % | Paw edema, percent change of vehicle ([2]; 3 hr): 64.3* % and 61.9* % and 59.0* % and 67.6* % and 57.7* % and 60.1* % and 62.9* % | Pain sensitivity, percent change of vehicle ([2]; 5 hr): 44.3* % and 49.3* % and 45.0* % and 47.9* % and 47.5* % and 43.3* % and 50.7* % | Paw edema, percent change of vehicle ([2]; 5 hr): 50.6* % and 50.0* % and 52.6* % and 53.5* % and 48.6* % and 51.3* % and 51.6* % | Pain Sensitivity 20-40 Minutes after Formalin Injection % ↓ vs. Vehicle [3]: 63.5%
